Laboratory results as given in US20180243325A1, “METHOD FOR INHIBITING ABSORPTION OF AND/OR PROMOTING EXCRETION OF LIPIDS USING D-PSICOSE” (CJ CHEILJEDANG CORPORATION, priority 2015, published 2018).

Key:
Format in all cases: in vivo, C57BL/6J mice
[1] = system: FATP4 (fatty acid transporter 4, 26569); test: Small intestine mRNA expression, real-time quantitative PCR: FATP4; settings: FIG. 8, HFD+5% w/w in diet, 16 weeks
Method: (§1) First, 4-week-old male C57BL/6J mice (60 total) were purchased from Jackson Laboratory. The animals were acclimated to the vivarium in a thermo-hygrostat (20-23° C., 45-65%) under a 12 h light/dark cycle and fed a pelletized commercial non-purified diet for 1 week after arrival. The mice were then randomly divided into 6 groups (n=10) and fed the respective experimental diets for 16 weeks: normal diet group (ND, American Institute of Nutrition (AIN)-76 semi-synthetic diet), high-fat diet group (HFD, 20% fat+1% cholesterol based on AIN-76 diet), PSI group (HFD+5% D-psicose, w/w, Sigma Chemical Company), ERY group (HFD+5% erythritol, w/w, Sigma Chemical Company), GLU group (HFD+5% D-glucose, w/w, Sigma Chemical Company), and FRU group (HFD+5% D-fructose, w/w, Sigma Chemical Company). All high-fat diet-fed groups were allowed to ingest the same calories by pair feeding based on the PSI group. The mice had ad libitum access to distilled water during the experimental period. Their feed intakes and body weights were measured daily and biweekly, respectively. The organ weights and the adipose tissue weights of the mice were measured after sacrificing the animals.
(§2) Samples were prepared and analyzed as previously described. Specifically, total RNA was synthesized into cDNA using a QuantiTect Reverse Transcription kit (QIAGEN Gmb1h, Hilden, Germany). RNA expression was quantified with real-time quantitative PCR using a QuantiTect SYBR Green PCR kit (QIAGEN Gmb1h, Hilden, Germany). Primers were designed to detect CD36 (cluster of differentiation 36, 12491), ApoB48 (apolipoprotein B 48, 238055), FATP4 (fatty acid transporter 4, 26569), ABCG5 (ATP-binding cassette sub-family G member5, 27409), and ABCG8 (ATP-binding cassette sub-family G member8, 67470). GAPDH was used as an internal transcription marker. The reaction was performed a total of 40 cycles (each consisting of 15 sec at 94° C., 30 sec at 58° C., 30 sec at 72° C., and 15 sec at 65° C.). Fluorescence signals were monitored every cycle and the resulting threshold cycles (Ct) were analyzed. mRNA expression in each experimental group was quantified using a CFX96 Real time system (Bio-rad, USA).

[2] = system: CD36 (cluster of differentiation 36, 12491); test: Small intestine mRNA expression, real-time quantitative PCR: CD36; settings: FIG. 8, HFD+5% w/w in diet, 16 weeks
Method: as §1, §2

[3] = system: fatty acid synthase (FAS); test: Hepatic lipid regulating enzyme activity: FAS; settings: FIG. 4B, liver cytoplasmic fraction, HFD+5% w/w in diet, 16 weeks
Method: as §1, with “animals. Samples were prepared and analyzed according to the method developed by Hulcher and Oleson. Specifically, the activity of fatty acid synthase (FAS) as a hepatic lipid regulating enzyme was measured by spectrophotometric assay according to the method described by Nepokroeff et al. Each sample was mixed with 100 μl of cytoplasmic fraction and the mixture was allowed to react at 30° C. for 2 min. A reduction in absorbance at 340 nm was measured. Fatty acid synthase (FAS) activity units were expressed as nanomoles (nmol) of NADPH oxidized for 1 min per mg of cytoplasmic fraction. Fatty acid β-oxidation activity was measured by monitoring the reduction of NAD^+ to NADH in the presence of palmitoyl-CoA, as described by Lazarow. β-oxidation activity units were expressed as nanomoles (nmol) of NADH produced for 1 min per mg of mitochondrial protein.” for “animals.”

Fatty acid β-oxidation = test: Hepatic fatty acid β-oxidation activity; settings: FIG. 4B, liver, HFD+5% w/w in diet, 16 weeks
Method: as §1, with “animals. Samples were prepared and analyzed according to the method developed by Hulcher and Oleson. Specifically, the activity of fatty acid synthase (FAS) as a hepatic lipid regulating enzyme was measured by spectrophotometric assay according to the method described by Nepokroeff et al. Each sample was mixed with 100 μl of cytoplasmic fraction and the mixture was allowed to react at 30° C. for 2 min. A reduction in absorbance at 340 nm was measured. Fatty acid synthase (FAS) activity units were expressed as nanomoles (nmol) of NADPH oxidized for 1 min per mg of cytoplasmic fraction. Fatty acid β-oxidation activity was measured by monitoring the reduction of NAD^+ to NADH in the presence of palmitoyl-CoA, as described by Lazarow. β-oxidation activity units were expressed as nanomoles (nmol) of NADH produced for 1 min per mg of mitochondrial protein.” for “animals.”

[4] = system: fatty acid synthase (FAS); test: FAS activity in epididymal white adipose tissue; settings: FIG. 5A, HFD+5% w/w in diet, 16 weeks
Method: as §1, with “animals. Samples were prepared and analyzed according to the method developed by Hulcher and Oleson. Specifically, the activity of fatty acid synthase (FAS) as a lipid regulating enzyme of epididymal white adipose tissue was measured by spectrophotometric assay according to the method described by Nepokroeff et al. Each sample was mixed with 100 μl of cytoplasmic fraction and the mixture was allowed to react at 30° C. for 2 min. A reduction in absorbance at 340 nm was measured. FAS activity units were expressed as nanomoles (nmol) of NADPH oxidized for 1 min per mg of cytoplasmic fraction. Fatty acid β-oxidation activity was measured by monitoring the reduction of NAD^+ to NADH in the presence of palmitoyl-CoA, as described by Lazarow. β-oxidation activity units were expressed as nanomoles (nmol) of NADH produced for 1 min per mg of mitochondrial protein.” for “animals.”

Structure (SMILES)	mRNA expression level of FATP4 in the small intestine [1]	mRNA expression level of FATP4 in the small intestine ([1]; listed as D-psicose)	mRNA expression level of CD36 in the small intestine [2]	mRNA expression level of CD36 in the small intestine ([2]; listed as D-psicose)	hepatic FAS activity [3]	hepatic fatty acid β-oxidation activity (Fatty acid β-oxidation)	FAS activity in adipose tissue [4]
O=C(CO)[C@H](O)[C@H](O)[C@H](O)CO [PSI, D-psicose]	significantly lower in the PSI group than those in other high-fat diet groups	reduces mRNA expression	significantly lower in the PSI group than those in other high-fat diet groups	reduces mRNA expression	decreased significantly compared to those in other high-fat diet groups	decreased significantly compared to those in other high-fat diet groups	decreased significantly compared to those in other high-fat diet groups
OC[C@@H](O)[C@@H](O)CO [ERY, erythritol]	significantly higher	–	significantly higher	–	increased significantly compared to those in the ND group	increased significantly compared to those in the ND group	increased significantly compared to those in the ND group
O=C[C@H](O)[C@@H](O)[C@H](O)[C@H](O)CO [GLU, D-glucose]	significantly higher	–	significantly higher	–	increased significantly compared to those in the ND group	increased significantly compared to those in the ND group	increased significantly compared to those in the ND group
O=C(CO)[C@@H](O)[C@H](O)[C@H](O)CO [FRU, D-fructose]	significantly higher	–	significantly higher	–	increased significantly compared to those in the ND group	increased significantly compared to those in the ND group	increased significantly compared to those in the ND group
